Patent US20250375540A1, “FIBROBLAST ACTIVATION PROTEIN TARGETING PRECURSOR AND RADIOTRACER” (ITM ONCOLOGICS GMBH, priority 2022, published 2025)

Legend:
FAP [1] = target: T1, FAP (Homo sapiens, UniProt Q12884); assay: Affinity to FAP (IC50); type: biochemical; settings: for affinity to FAP, in words: compared with reference (F) and gold standard (G); for selectivity for FAP over PREP, in words: relative to (G) UAMC1110; for S = PREP IC50/FAP IC50: selectivity FAP over PREP; for SF = S relative to UAMC1110: selectivity factor relative to UAMC1110
T1 sequence (Q12884 1-760): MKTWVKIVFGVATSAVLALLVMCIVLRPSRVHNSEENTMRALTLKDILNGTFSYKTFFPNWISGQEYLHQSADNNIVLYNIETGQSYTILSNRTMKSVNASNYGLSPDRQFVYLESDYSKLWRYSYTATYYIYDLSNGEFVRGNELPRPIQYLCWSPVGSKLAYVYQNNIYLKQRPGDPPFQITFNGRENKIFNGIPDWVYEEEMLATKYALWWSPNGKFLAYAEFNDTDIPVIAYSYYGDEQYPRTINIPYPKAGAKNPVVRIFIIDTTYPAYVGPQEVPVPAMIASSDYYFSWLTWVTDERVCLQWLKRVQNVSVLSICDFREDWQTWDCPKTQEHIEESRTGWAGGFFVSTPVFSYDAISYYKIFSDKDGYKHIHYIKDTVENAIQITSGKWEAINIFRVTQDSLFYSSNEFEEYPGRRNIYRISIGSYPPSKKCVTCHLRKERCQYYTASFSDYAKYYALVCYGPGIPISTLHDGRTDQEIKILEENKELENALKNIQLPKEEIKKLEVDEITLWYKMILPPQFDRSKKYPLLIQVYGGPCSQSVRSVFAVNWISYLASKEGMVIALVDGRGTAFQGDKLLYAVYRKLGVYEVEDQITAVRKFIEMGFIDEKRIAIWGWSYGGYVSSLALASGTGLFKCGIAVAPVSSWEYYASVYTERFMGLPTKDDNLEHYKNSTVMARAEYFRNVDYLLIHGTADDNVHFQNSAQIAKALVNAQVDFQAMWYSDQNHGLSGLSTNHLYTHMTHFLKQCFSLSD

PREP = target: T2, PREP (Homo sapiens, UniProt P48147); assay: Affinity to PREP (IC50); type: biochemical; settings: for binding to off-target PREP, in words: compared with reference (F) and (G)
T2 sequence (P48147 1-710): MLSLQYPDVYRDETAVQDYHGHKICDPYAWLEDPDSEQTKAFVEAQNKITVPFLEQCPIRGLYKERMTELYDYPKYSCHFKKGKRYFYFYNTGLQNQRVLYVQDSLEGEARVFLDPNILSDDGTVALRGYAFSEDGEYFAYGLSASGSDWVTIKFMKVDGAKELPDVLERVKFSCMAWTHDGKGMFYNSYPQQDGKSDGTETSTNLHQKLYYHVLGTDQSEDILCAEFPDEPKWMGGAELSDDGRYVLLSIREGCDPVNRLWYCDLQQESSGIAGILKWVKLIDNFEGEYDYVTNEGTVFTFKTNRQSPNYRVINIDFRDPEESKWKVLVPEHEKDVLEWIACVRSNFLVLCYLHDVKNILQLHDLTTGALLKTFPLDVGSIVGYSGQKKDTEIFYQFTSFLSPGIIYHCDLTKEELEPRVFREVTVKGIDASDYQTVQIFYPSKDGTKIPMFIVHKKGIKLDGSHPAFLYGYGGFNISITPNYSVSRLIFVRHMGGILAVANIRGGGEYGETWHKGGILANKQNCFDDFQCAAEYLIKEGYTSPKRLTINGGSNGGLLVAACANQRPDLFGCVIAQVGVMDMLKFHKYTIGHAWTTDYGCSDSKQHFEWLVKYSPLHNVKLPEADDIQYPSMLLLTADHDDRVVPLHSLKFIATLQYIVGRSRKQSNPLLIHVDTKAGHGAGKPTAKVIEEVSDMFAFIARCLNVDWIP
From the text: Beneath Table 1 presents measured affinities to FAP and PREP for the inventive precursor compounds 1-4 and reference compound 5 as well as the original FAP inhibitor UAMC1110 as the current gold standard.

FAP [2] = target: T1, FAP; settings: background statement; cited from earlier work
DPP4 = DPP4 (Homo sapiens, UniProt P27487); settings: background statement; cited from earlier work
Chain of DPP4 (P27487 whole entry): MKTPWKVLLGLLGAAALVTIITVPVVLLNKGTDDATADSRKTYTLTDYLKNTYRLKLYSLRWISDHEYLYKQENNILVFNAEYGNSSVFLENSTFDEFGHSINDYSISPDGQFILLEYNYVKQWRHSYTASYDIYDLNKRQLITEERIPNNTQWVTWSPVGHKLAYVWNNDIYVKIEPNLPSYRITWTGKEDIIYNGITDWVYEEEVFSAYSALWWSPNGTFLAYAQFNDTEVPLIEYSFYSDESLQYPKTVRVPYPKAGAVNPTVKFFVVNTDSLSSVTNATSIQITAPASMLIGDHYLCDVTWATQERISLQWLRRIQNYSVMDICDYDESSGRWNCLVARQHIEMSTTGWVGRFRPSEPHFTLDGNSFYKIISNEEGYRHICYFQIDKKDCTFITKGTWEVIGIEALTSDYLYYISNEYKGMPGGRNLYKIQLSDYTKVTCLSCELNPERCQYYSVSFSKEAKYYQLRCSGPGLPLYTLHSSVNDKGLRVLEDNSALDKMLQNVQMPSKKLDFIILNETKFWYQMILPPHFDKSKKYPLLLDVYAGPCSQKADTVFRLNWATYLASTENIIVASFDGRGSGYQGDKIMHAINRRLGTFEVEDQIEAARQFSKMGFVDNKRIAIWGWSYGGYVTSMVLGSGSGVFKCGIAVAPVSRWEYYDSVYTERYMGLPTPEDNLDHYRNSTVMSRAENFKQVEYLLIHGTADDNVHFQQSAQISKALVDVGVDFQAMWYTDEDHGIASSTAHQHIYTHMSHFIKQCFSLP

| SMILES | IC50 (FAP [1]) [nM] | selectivity for FAP over PREP, in words (FAP [1]) | S = PREP IC50/FAP IC50 (FAP [1]) | SF = S relative to UAMC1110 (FAP [1]) | IC50 (PREP) [nM] | affinity to FAP, in words (FAP [1]) | binding to off-target PREP, in words (PREP) | FAP affinity (FAP [2]) | DPP4 affinity (DPP4) |
| --- | --- | --- | --- | --- | --- | --- | --- | --- | --- |
| CN(CC(=O)NCCCCOc1ccc2nccc(C(=O)NCC(=O)N3CC(F)(F)C[C@H]3C#N)c2c1)[C@H]1CCN(C(=O)CCCCC2(N(C)CC(=O)O)CN(CC(=O)O)CCN(CC(=O)O)C2)C1 [(E), 2,2′-(6-((carboxymethyl)(methyl)amino)-6-(5-((S)-3-((2-((4-((4-((2-((S)-2-cyano-4,4-difluoropyrrolidin-1-yl)-2-oxoethyl)carbamoyl)quinolin-6-yl)oxy)butyl)amino)-2-oxoethyl)(methyl)amino)pyrrolidin-1-yl)-5-oxopentyl)-1,4-diazepane-1,4-diyl)diacetic Acid] | 0.31 ± 0.02 | twice that of (G) | 8.4 × 10^3 | 2.0 | 2600 ± 300 | higher affinity to FAP than reference compound (F) and the UAMC1110 gold standard (G) | reduced binding to off-target PREP compared to reference (F) and (G) | – | – |
| N#C[C@@H]1CC(F)(F)CN1C(=O)CNC(=O)c1ccnc2ccccc12 [(G), (S)-N-(2-(2-cyano-4,4-difluoropyrrolidin-1-yl)-2-oxoethyl)quinoline-4-carboxamide] | – | – | – | – | – | – | – | low nM range | μM range |

Further lines, with some results ahead:

| IC50 (FAP [1]) [nM] | selectivity for FAP over PREP, in words (FAP [1]) | S = PREP IC50/FAP IC50 (FAP [1]) | SF = S relative to UAMC1110 (FAP [1]) | IC50 (PREP) [nM] | SMILES | affinity to FAP, in words (FAP [1]) | binding to off-target PREP, in words (PREP) | FAP affinity (FAP [2]) | DPP4 affinity (DPP4) |
| --- | --- | --- | --- | --- | --- | --- | --- | --- | --- |
| 0.28 ± 0.02 | three times higher than that of (G) | 11.8 × 10^3 | 2.8 | 3300 ± 200 | CN(CC(=O)O)C1(CCCCC(=O)N[C@H]2CCN(CC(=O)NCCCCOc3ccc4nccc(C(=O)NCC(=O)N5CC(F)(F)C[C@H]5C#N)c4c3)C2)CN(CC(=O)O)CCN(CC(=O)O)C1 [(D), 2,2′-(6-((carboxymethyl)(methyl)amino)-6-(5-(((S)-1-(2-((4-((4-((2-((S)-2-cyano-4,4-difluoropyrrolidin-1-yl)-2-oxoethyl)carbamoyl)quinolin-6-yl)oxy)butyl)amino)-2-oxoethyl)pyrrolidin-3-yl)amino)-5-oxopentyl)-1,4-diazepane-1,4-diyl)diacetic Acid] | higher affinity to FAP than reference compound (F) and the UAMC1110 gold standard (G) | reduced binding to off-target PREP compared to reference (F) and (G) | – | – |
| 0.27 ± 0.01 | – | 5.6 × 10^3 | 1.3 | 1500 ± 300 | CN(CC(=O)O)C1(CCCCC(=O)N2CCN(CC(=O)NCCCCOc3ccc4nccc(C(=O)NCC(=O)N5CC(F)(F)C[C@H]5C#N)c4c3)CC2)CN(CC(=O)O)CCN(CC(=O)O)C1 [Compound (B), (S)-2,2′-(6-((carboxymethyl)(methyl)amino)-6-(5-(4-(2-((4-((4-((2-(2-cyano-4,4-difluoropyrrolidin-1-yl)-2-oxoethyl)carbamoyl)quinolin-6-yl)oxy)butyl)amino)-2-oxoethyl)piperazin-1-yl)-5-oxopentyl)-1,4-diazepane-1,4-diyl)diacetic Acid] | higher affinity to FAP than reference compound (F) and the UAMC1110 gold standard (G) | comparable to (F) and (G) | – | – |
| 0.27 ± 0.02 | six times that of (G) | 23.7 × 10^3 | 5.6 | 6400 ± 400 | CN(CC(=O)O)C1(CCCCC(=O)NCCCCOc2ccc3nccc(C(=O)NCC(=O)N4CC(F)(F)C[C@H]4C#N)c3c2)CN(CC(=O)O)CCN(CC(=O)O)C1 [Compound (A), (S)-2,2′-(6-((carboxymethyl)(methyl)amino)-6-(5-((4-((4-((2-(2-cyano-4,4-difluoropyrrolidin-1-yl)-2-oxoethyl)carbamoyl)quinolin-6-yl)oxy)butyl)amino)-5-oxopentyl)-1,4-diazepane-1,4-diyl)diacetic Acid] | higher affinity to FAP than reference compound (F) and the UAMC1110 gold standard (G) | reduced binding to off-target PREP compared to reference (F) and (G) | – | – |
